{
  "source": "patent US20260092086A1",
  "about": "“ANTIMICROBIAL LASSO PEPTIDES” (priority 2022, published 2026)",
  "key": {"[1]": {"system": "E. coli MG1655", "test": "Spot-on-lawn assay in M63 agar", "format": "cell-based, Escherichia coli", "conditions": "purified cloacaenodin in water", "method": "(§1) Cloacaenodin was evaluated against several common laboratory strains as well as commercially acquired strains using a spot-on-lawn assay.^45 Strains were streaked out onto LB agar plates and incubated overnight at their recommended temperatures. A single colony was then used to inoculate an overnight culture in 5 mL of LB broth. After shaking at 250 rpm at the recommended temperature for each strain, 50 μL of the overnight culture was used to inoculate 5 mL of LB broth (volume ratio 1:100). These cultures were grown for a few hours until they reached the exponential phase (OD600˜0.4-0.6) before being added to 10 mL of soft M63 agar at a final cell density of 10^7 CFUs/mL, or 10^8 CFUs total in 10 mL. The M63 soft agar was composed of 2 g/L of (NH4)2SO4 (EMD MilliporeSigma), 13.6 g/L of KH2PO4 (Fisher), 40 mg/L of each of the 20 common amino acids, 0.2% glucose (Sigma), 0.00005% w/v thiamine hydrochloride (Sigma), and 0.65% w/v bacteriological-grade agar (Apex Bioresearch). […] Upon solidification, 10 μL of purified cloacaenodin in water at two-fold dilutions were then spotted onto the agar and allowed to dry. The plates were incubated overnight at the strains' recommended temperatures and analyzed the next morning for activity. The MIC is defined as the last dilution where a spot was visible."}, "[2]": {"system": "Enterobacter amnigenus ATCC 33072", "format": "cell-based", "method": "as §1"}, "[3]": {"system": "Enterobacter mori DSM 26271", "format": "cell-based", "method": "as §1"}, "[4]": {"system": "Enterobacter asburiae DSM 17506", "format": "cell-based", "method": "as §1"}, "[5]": {"system": "Enterobacter cloacae ATCC 13047", "format": "cell-based", "method": "as §1"}, "[6]": {"molecular_target": "T1, trypsin (Sus scrofa, UniProt P00761)", "T1 construct": "purchased Promega", "T1 sequence (P00761 9-231)": "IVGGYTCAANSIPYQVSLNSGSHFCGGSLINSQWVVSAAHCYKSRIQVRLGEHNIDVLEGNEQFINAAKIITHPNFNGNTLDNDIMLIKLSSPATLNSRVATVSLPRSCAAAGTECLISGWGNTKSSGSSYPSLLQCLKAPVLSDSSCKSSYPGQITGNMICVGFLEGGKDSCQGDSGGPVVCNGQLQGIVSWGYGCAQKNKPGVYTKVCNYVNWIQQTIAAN", "test": "Protease digestion, trypsin", "format": "in vitro ADME", "conditions": "50 μM peptide, room temperature, 30 minutes to 1 hour, LC-MS", "method": "Sequencing grade trypsin (Promega) was added to 50 μM peptide samples at a 1:100 trypsin: peptide weight ratio in a buffer of 50 mM ammonium bicarbonate. The reaction was allowed to proceed at room temperature for 30 minutes to 1 hour and then quenched by 1% formic acid. An aliquot was then injected onto LC-MS for analysis."}, "[7]": {"molecular_target": "T2, Elastase (Sus scrofa, UniProt P00772)", "T2 construct": "purchased Promega", "T2 sequence (P00772 27-266)": "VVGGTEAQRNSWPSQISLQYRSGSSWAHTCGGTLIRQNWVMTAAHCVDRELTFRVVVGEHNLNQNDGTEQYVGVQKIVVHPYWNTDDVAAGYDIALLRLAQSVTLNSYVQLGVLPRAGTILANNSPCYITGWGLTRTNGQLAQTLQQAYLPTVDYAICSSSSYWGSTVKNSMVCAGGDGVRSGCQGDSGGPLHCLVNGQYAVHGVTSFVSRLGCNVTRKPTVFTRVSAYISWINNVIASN", "test": "Protease digestion, elastase", "format": "in vitro ADME", "conditions": "50 μM peptide, 25° C., about 1 hour, LC-MS", "method": "Elastase (Promega) was resuspended in 50 mM Tris pH 9.0. The enzyme was added to 50 μM peptide samples at a final enzyme concentration of about 0.04 mg/mL in a buffer of 50 mM Tris, pH 9. The reactions were then allowed to incubate at 25° C. for about 1 hour before quenching with 1% formic acid. An aliquot was then injected into LC-MS for analysis."}, "[8]": {"system": "Enterobacter strains", "test": "Spot-on-lawn assay, CDC & FDA Antibiotic Resistance Isolate Bank panels", "format": "cell-based", "conditions": "three of the four Enterobacter strains of the CRE/BIT panels, M63 agar", "source_text": "(§2) FIG. 42. Spot-on-lawn assays of tested clinical isolates treated with cloacaenodin in M63 agar. From the initial concentration shown to the left of the curved arrow and in the direction of the curved arrow, two-fold serial dilutions of cloacaenodin were spotted. The straight arrows point to the last visible spot on the plate which corresponds to the recorded minimal inhibitory concentration (MIC). Spot 8 is pure water in all plates. AR Bank #0132, AR Bank #0136, AR Bank #0144, and AR Bank #0154 are from the CRE panel. AR Bank #0001 and AR Bank #0002 are from the BIT panel.\n(§3) Two panels from the CDC & FDA Antibiotic Resistance Isolate Bank were used: the Enterobacterales Carbapenemase Diversity (CRE) panel and the Enterobacterales Carbapenem Breakpoint (BIT) panel.^81 These panels represent strains with resistance to carbapenems, which are last resort antibiotics: there is an urgent need of new treatments of infections with these strains.\n(§4) We tested 6 strains: 4 Enterobacter strains, 1 Kluyvera strain, and 1 Escherichia coli strain."}, "[9]": {"system": "Kluyvera strain", "test": "Spot-on-lawn assay, CDC & FDA Antibiotic Resistance Isolate Bank panels", "format": "cell-based", "conditions": "carbapenem-resistant CRE/BIT panel strain, M63 agar", "source_text": "as §2, §3, §4"}, "[10]": {"system": "Enterobacter cloacae ATCC 13047", "format": "cell-based", "method": "(§5) For liquid inhibition assays, 5 mL LB broth was inoculated with 40-50 μL of an overnight culture of E. cloacae or E. amnigenus. […] The plate was shaken at 30° C. at 250 rpm for E. cloacae, and 37° C. at 250 rpm for E. amnigenus. The OD600 was measured at 8-hour and 16-hour increments. The MIC is defined as the lowest concentration of cloacaenodin for which growth (as assessed by the OD600) was inhibited.", "remark": "listed apart in the source"}, "[11]": {"system": "Enterobacter amnigenus", "format": "cell-based", "method": "as §5"}, "[12]": {"conditions": "spot-on-lawn, M63 agar, purified cloacaenodin in water"}, "[13]": {"conditions": "listed as Threaded cloacaenodin"}, "[14]": {"conditions": "listed as threaded cloacaenodin"}},
  "note": "Like-named read-outs stand apart in the source and are kept apart here. Where a SMILES comes first, the peptide text is derived from it.",
  "data": [
    {"smiles": "CC[C@H](C)[C@@H]1NC(=O)[C@H](CCCNC(=N)N)NC(=O)[C@H](CC(=O)O)NC(=O)[C@H](C(C)C)NC(=O)[C@H](CO)NC(=O)[C@H](Cc2c[nH]cn2)NC(=O)CNC(=O)CC[C@@H](C(=O)N[C@@H](Cc2ccc(O)cc2)C(=O)N[C@@H](Cc2ccccc2)C(=O)NCC(=O)N2CCC[C@H]2C(=O)N2CCC[C@H]2C(=O)NCC(=O)N[C@@H](CC(C)C)C(=O)N2CCC[C@H]2C(=O)NCC(=O)N2CCC[C@H]2C(=O)N[C@H](C(=O)N[C@@H](CC(C)C)C(=O)N[C@@H](Cc2ccccc2)C(=O)N[C@@H](Cc2ccc(O)cc2)C(=O)N[C@@H](CO)C(=O)O)C(C)C)NC(=O)[C@@H]2CCCN2C1=O", "note": "[cloacaenodin] (HELM PEPTIDE1{G.H.S.V.D.R.I.P.E.Y.F.G.P.P.G.L.P.G.P.V.L.F.Y.S}$PEPTIDE1,PEPTIDE1,1:R1-9:R3$$$V2.0; C-terminus assumed)", "values": [
      {"measurement": "antimicrobial activity (zones of inhibition)", "setting": "[1]", "result": "no observed activity"},
      {"measurement": "MIC in M63 media", "setting": "[2]; ATCC 33072", "result": 1.9, "unit": "µM"},
      {"measurement": "strain susceptible to cloacaenodin", "setting": "[2]; Enterobacter amnigenus ATCC 33072", "result": "* Enterobacter amnigenus"},
      {"measurement": "antimicrobial activity (zones of inhibition)", "setting": "[2]; [12]", "result": "zones of inhibition in the low micromolar range"},
      {"measurement": "MIC in M63 media", "setting": "[3]; DSM 26271", "result": 3.8, "unit": "µM"},
      {"measurement": "strain susceptible to cloacaenodin", "setting": "[3]; Enterobacter mori DSM 26271", "result": "* Enterobacter mori"},
      {"measurement": "antimicrobial activity (zones of inhibition)", "setting": "[3]; [12]", "result": "zones of inhibition in the low micromolar range"},
      {"measurement": "MIC in M63 media", "setting": "[4]; DSM 17506", "result": 1.9, "unit": "µM"},
      {"measurement": "antimicrobial activity (zones of inhibition)", "setting": "[4]; [12]", "result": "zones of inhibition in the low micromolar range"},
      {"measurement": "MIC in M63 media", "setting": "[5]; ATCC 13047", "result": 7.5, "unit": "µM"},
      {"measurement": "strain susceptible to cloacaenodin", "setting": "[5]; Enterobacter cloacae subsp. cloacae ATCC 13047", "result": "* Enterobacter cloacae subsp. cloacae"},
      {"measurement": "activity against Enterobacter cloacae", "setting": "[5]; peptide at a concentration of 15 μM, listed as threaded cloacaenodin", "result": "has activity"},
      {"measurement": "antimicrobial activity (zones of inhibition)", "setting": "[5]; [12]", "result": "zones of inhibition in the low micromolar range"},
      {"measurement": "proteolysis by trypsin", "setting": "[6]; [13]", "result": "resistant to trypsin digestion"},
      {"measurement": "proteolysis by trypsin", "setting": "[6]; [14]", "result": "remained resistant to proteolysis"},
      {"measurement": "proteolysis by elastase", "setting": "[7]; [13]", "result": "resistant to elastase digestion"},
      {"measurement": "proteolysis by elastase", "setting": "[7]; [14]", "result": "remained resistant to proteolysis"},
      {"measurement": "antimicrobial activity", "setting": "[8]", "result": "single digit micromolar"},
      {"measurement": "antimicrobial activity", "setting": "[9]", "result": "single digit micromolar"},
      {"measurement": "MIC in M63 media", "setting": "[10]; ATCC 13047", "result": 0.94, "unit": "µM"},
      {"measurement": "MIC in M63 media", "setting": "[10]; liquid, Enterobacter cloacae ATCC 13047", "result": "0.94 µM (liquid)"},
      {"measurement": "MIC, broth microdilution assay in M63 media", "setting": "[11]", "result": 0.23, "unit": "µM"}
    ]}
  ]
}
